The target in series [1] is T1, DYRK1A (Homo sapiens, UniProt Q13627). In words: biochemical. It is filed as biochemical.
In series [2] the test system is H4 cells. In words: High content imaging assay. Type of series: cell-based, human. To be noted: Homo sapiens, 72 h, read-out: H4 (nuclear count) IC50.
A further series deals with MAO-A. Conditions: read-out: MAO-A IC50, published, ref Bálint et al., 2017, Clarke and Ramsay, 2011, Herraiz and Brandt, 2014, Herraiz and Chaparro, 2005, Ionescu et al., 2012, Kim et al., 1997, Rahman and Rahmatullah, 2010, Reniers et al., Rommelspacher et al., 1994, Rüben et al., 2015, Santillo et al., Wurzlbauer et al., 2020; cited from earlier work.
Series [3] addresses T2, Monoamine oxidase-A (MAO-A) (Homo sapiens, UniProt P21397).
T2 sequence (P21397 1-527): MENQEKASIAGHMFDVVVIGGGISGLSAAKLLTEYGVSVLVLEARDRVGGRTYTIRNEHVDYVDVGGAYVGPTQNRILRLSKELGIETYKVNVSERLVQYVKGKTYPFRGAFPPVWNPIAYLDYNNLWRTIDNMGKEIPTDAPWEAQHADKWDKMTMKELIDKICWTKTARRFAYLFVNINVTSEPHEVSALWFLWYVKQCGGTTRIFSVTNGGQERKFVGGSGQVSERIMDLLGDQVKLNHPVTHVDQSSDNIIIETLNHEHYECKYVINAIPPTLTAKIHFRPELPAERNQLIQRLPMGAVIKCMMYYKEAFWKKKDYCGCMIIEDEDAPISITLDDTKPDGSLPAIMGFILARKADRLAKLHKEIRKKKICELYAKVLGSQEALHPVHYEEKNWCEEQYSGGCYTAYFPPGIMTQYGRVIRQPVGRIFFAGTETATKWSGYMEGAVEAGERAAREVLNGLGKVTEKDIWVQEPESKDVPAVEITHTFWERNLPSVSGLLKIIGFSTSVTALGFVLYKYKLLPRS
Briefly: biochemical. Type of series: biochemical.

In series [4] the target is T1, DYRK1A. Conditions: read-out: DYRK1A IC50, published values, ref Adayev et al., 2011, Bain et al., 2007, Bálint et al., 2017, Bruel et al., 2014, Foucourt et al., Göckler et al., 2009, Grabher et al., 2012, Kim et al., 2016, Kumar et al., 2018, Liu et al., 2017b, PubChem; cited from earlier work.
In series [5] the test system is U87 cells. Briefly: High content imaging assay. Type of series: cell-based, human. Conditions: Homo sapiens, U-87 MG, 72 h, read-out: U87 (nuclear count) IC50.
In series [6] the target is T1, DYRK1A. Briefly: biochemical. Type of series: binding. Conditions: for IC50: DYRK1A IC50, TR-FRET. (In general: TR-FRET usually uses a lanthanide donor and a delayed reading to cut background.)
In series [7] the test system is H4 cells. In words: PrestoBlue cell proliferation/viability assay. It is filed as cell-based, human. Conditions: Homo sapiens, 72 h, read-out: H4 (cell proliferation) IC50.
Series [8] relates to U87 human glioblastoma cells. In words: U87 glioma tumor xenograft in nude NU/J mice. Type of series: in vivo. Conditions: for Effect on body weight: up to 21 days.
A further series concerns panel of 10 kinases. Briefly: Kinase selectivity panel. To be noted: 10 μM.
The subject of series [9] is U87 cells. Briefly: PrestoBlue cell proliferation/viability assay. It is filed as cell-based, human. Conditions: Homo sapiens, U-87 MG, 72 h, read-out: U87 (cell proliferation) IC50.
Another series concerns the target CLK1 (Homo sapiens, UniProt P49759). Briefly: InCELL Hunter / PathHunter in-cell target engagement assay. Type of series: cell-based. To be noted: 0.5, 5 and 50 μM.

The term inhibition denotes the percentage by which the read-out fell short of the control.

Molecules are shown by their SMILES. Read-outs that look alike come from different tables or passages of the source.

CLK1, sequence (P49759 whole entry): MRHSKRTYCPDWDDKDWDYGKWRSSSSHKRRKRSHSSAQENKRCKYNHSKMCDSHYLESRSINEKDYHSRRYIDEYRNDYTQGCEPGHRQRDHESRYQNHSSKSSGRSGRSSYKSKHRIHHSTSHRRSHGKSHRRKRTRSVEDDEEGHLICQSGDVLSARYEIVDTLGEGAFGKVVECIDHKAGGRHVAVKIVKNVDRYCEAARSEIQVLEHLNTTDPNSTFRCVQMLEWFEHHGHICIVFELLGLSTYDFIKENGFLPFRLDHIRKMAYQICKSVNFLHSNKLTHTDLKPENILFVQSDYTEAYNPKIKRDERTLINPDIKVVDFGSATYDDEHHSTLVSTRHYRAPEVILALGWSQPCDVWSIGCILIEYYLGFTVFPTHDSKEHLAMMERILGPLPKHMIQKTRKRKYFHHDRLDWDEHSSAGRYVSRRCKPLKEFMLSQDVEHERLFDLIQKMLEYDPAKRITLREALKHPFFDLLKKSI

With `Cc1[nH]ccc2c1[nH]c1cc(=O)ccc12` [Harmol, harmol], the IC50 against DYRK1A [1] is 16 nM; with H4 cells [2], 20000 nM; in the series on MAO-A, 530 nM; in [3] (MAO-A IC50, MAO-A Glo) it was 500 nM; at DYRK1A [4], 44 to 298 nM; in the series with U87 cells [5] it was 20800 nM. In addition, the IC50 was 100 nM against DYRK1A [6] (10-point 2-fold dose response), 70 to 100 nM against DYRK1A [6] (dose response), 10900 nM with H4 cells [7] and 19100 nM in the series on U87 cells [9]. For the same compound, the “Fold more potent IC50 with 33P-ATP assay versus TR-FRET” value on DYRK1A [1] (DYRK1A) is on record as 6–7 fold. Also, the “Fold weaker than harmine for MAO-A” value in [3] came out at 10 fold. For the same compound, in series [3] (using TR-FRET DYRK1A IC50 values), the “DYRK1A:MAO-A (IC50 ratio)” value is recorded as 0.2. Besides, the inhibition at 6.7 µM on DYRK1A [6] (read-out: DYRK1A inhibition in pilot HTS) was 78%. Moreover, the results for the Tumor inhibition rate in series [8] (15 mg/kg i.p. q.d.) and in series [8] (60 mg/kg i.p. q.d.) were 28.2% and 38.1%, respectively. The “Effect on body weight” value in series [8] (15 mg/kg i.p. q.d.) and in [8] (60 mg/kg i.p. q.d.) was “did not lead to significant differences in body weight” each time. For the same compound, the “Survival (Kaplan-Meier) compared to vehicle” value in [8] (60 mg/kg i.p. q.d., not statistically significant) is listed as “trend towards improved survival”. Also, the “Tremor activity in treated mice” value in series [8] (anecdotal observation, duration of the study) is given as “no tremor activity”. The Tumor growth entry in series [8] (high dose (60 mg/kg), day 21, not reaching significance) is listed as “modest decrease in tumor growth”. The “Number of the 10 kinases displaying 50% or greater inhibition” value with panel of 10 kinases is 7. Also, the “Effect on β-gal activity (CLK1 target engagement)” value on CLK1 is “increase in β-gal activity”.

Values taken from paper PMC8404221 (European journal of pharmaceutical sciences : official …, 2021).
